Some test systems named below: CAKI-1 renal; SF-295 CNS; NCI/ADR-RES ovarian; COLO 205 colon; BT-549 breast; TK-10 renal; RXF 393 renal; SK-MEL-5 melanoma; NCI-H460 lung; MDA-MB-231 breast.
Assay in all cases: DTP human tumour cell line panel, 48 h

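Briefly, cells in 96-well plates were exposed to five compound concentrations for 48 h, and endpoints were estimated by linear interpolation. At the TGI there is no net growth.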

By TGI is commonly meant the concentration at which net growth stops.

With `COC(=O)/C=C(\C)CC(O)/C=C(\C)CCC=C(C)C` (stereo not given), the TGI in the test with CAKI-1 renal was > 100 µM; in the test with SF-295 CNS, > 100 µM; with NCI/ADR-RES ovarian, 67.9 µM; in the test on COLO 205 colon, > 100 µM; in the test on BT-549 breast it was > 100 µM; in the test on TK-10 renal, > 100 µM. Also, the TGI with RXF 393 renal was > 100 µM; in the test on SK-MEL-5 melanoma it was 42.7 µM; in the test with NCI-H460 lung, > 100 µM; with MDA-MB-231 breast it was > 100 µM.
As for `COc1cc2c(C)cc(O)cc2c2cc(O)c(C)cc12`, the TGI stood at 22.4 µM in the test with CAKI-1 renal; 23.8 µM in the test on SF-295 CNS; 30.4 µM in the test with NCI/ADR-RES ovarian; 19.6 µM in the test on COLO 205 colon; 23 µM in the test with BT-549 breast; 23.8 µM in the test on TK-10 renal. Moreover, the TGI in the test with RXF 393 renal was found to be 22.9 µM; with SK-MEL-5 melanoma, 20.3 µM; in the test with NCI-H460 lung it was 9.73 µM; in the test with MDA-MB-231 breast it was 19.2 µM.
For `O=C1C(c2c(O)[nH]c3ccc(F)cc23)=Nc2ccccc21`, the TGI with CAKI-1 renal, with SF-295 CNS, in the test with NCI/ADR-RES ovarian, with COLO 205 colon, in the test with BT-549 breast and in the test with TK-10 renal was > 100 µM in each case. Moreover, the TGI in the test with RXF 393 renal was 9.77 µM; in the test on SK-MEL-5 melanoma it was > 100 µM; in the test on NCI-H460 lung, > 100 µM; in the test with MDA-MB-231 breast, 54.6 µM.
Take `COc1ccc(S(=O)(=O)c2nnc(S(=O)(=O)Cc3ccccc3)s2)cc1`: the TGI was 39.3 µM with CAKI-1 renal; 90.1 µM with SF-295 CNS; > 100 µM with NCI/ADR-RES ovarian; 28.5 µM in the test on COLO 205 colon; 49.8 µM in the test with BT-549 breast; 39.6 µM in the test with TK-10 renal. Also, the TGI worked out at 31.2 µM in the test on RXF 393 renal, 34.2 µM with SK-MEL-5 melanoma, 38.1 µM with NCI-H460 lung and 62.3 µM with MDA-MB-231 breast.
For `CCOC1OC(=O)c2cc3ccc4c(c3c(-c3ccc5c(c3)OCO5)c21)OCO4` (stereo not given), the TGI in the test with CAKI-1 renal was > 100 µM; in the test with SF-295 CNS it was 8.14 µM; with NCI/ADR-RES ovarian, > 74.6 µM; in the test with COLO 205 colon, 5.16 µM; with BT-549 breast, 97.2 µM; in the test with TK-10 renal, > 77.9 µM. The TGI was 97.9 µM with RXF 393 renal, 27 µM with SK-MEL-5 melanoma, 28.1 µM in the test with NCI-H460 lung and > 100 µM with MDA-MB-231 breast.
Regarding `O=C(/C=C/c1cc2ccccc2o1)N1CCN(c2ccccn2)CC1`, the TGI in the test on CAKI-1 renal, in the test on SF-295 CNS, in the test on NCI/ADR-RES ovarian, in the test with COLO 205 colon, in the test on BT-549 breast and in the test on TK-10 renal was > 100 µM throughout. In addition, the TGI in the test on RXF 393 renal, with SK-MEL-5 melanoma, in the test on NCI-H460 lung and with MDA-MB-231 breast was > 100 µM throughout.
Take `CN1C2CCC1CC(=CCOC(c1ccc(F)cc1)c1ccc(F)cc1)C2`: the TGI in the test on CAKI-1 renal stood at 30.6 µM; in the test on SF-295 CNS, 30.9 µM; in the test with NCI/ADR-RES ovarian, 40.1 µM; with COLO 205 colon it was 30.5 µM; in the test with BT-549 breast, 30.1 µM; with TK-10 renal, 28.5 µM. Further, the TGI in the test with RXF 393 renal worked out at 28.2 µM; with SK-MEL-5 melanoma, 23.2 µM; in the test with NCI-H460 lung, 35.3 µM; with MDA-MB-231 breast, 37.1 µM.
Turning to `O=C1/C(=C/c2ccccc2S)N=C(c2ccccc2)N1c1nc2c(Cl)cc(Cl)cc2s1`, the TGI is > 100 µM with CAKI-1 renal; 72.4 µM in the test with SF-295 CNS; 84.9 µM in the test with NCI/ADR-RES ovarian; 54.8 µM in the test on COLO 205 colon; > 100 µM in the test on BT-549 breast; > 100 µM in the test on TK-10 renal. Besides, the TGI was 58 µM in the test on RXF 393 renal, 36 µM with SK-MEL-5 melanoma, > 100 µM in the test with NCI-H460 lung and 80.9 µM with MDA-MB-231 breast.
On to `Fc1cc(-c2cc(-c3ccccc3)no2)c(Cl)cc1Cl`, for which the TGI in the test with CAKI-1 renal was > 100 µM; with SF-295 CNS it was > 49.4 µM; in the test on NCI/ADR-RES ovarian, > 100 µM; in the test with COLO 205 colon it was > 16.2 µM; in the test on BT-549 breast it was 39.8 µM; with TK-10 renal, > 51.7 µM. For the same molecule, the TGI in the test on RXF 393 renal was 16.6 µM; in the test with SK-MEL-5 melanoma, > 33.5 µM; in the test on NCI-H460 lung it was > 43.1 µM; in the test with MDA-MB-231 breast it was 32.8 µM.
Regarding `CCOC(=O)C12OC(CCC1=O)C(C(=O)OC)=C2C(=O)OC` (stereo not given), the TGI with CAKI-1 renal, with SF-295 CNS, with NCI/ADR-RES ovarian, in the test on COLO 205 colon, in the test on BT-549 breast and in the test on TK-10 renal was > 10 µM in each case. Moreover, the TGI in the test on RXF 393 renal, in the test on SK-MEL-5 melanoma, with NCI-H460 lung and in the test with MDA-MB-231 breast was > 10 µM each time.
As for `Cc1ccnc2[nH]c3ccccc3c(=O)c12`, the TGI is 38.5 µM in the test on CAKI-1 renal; > 100 µM in the test on SF-295 CNS; > 100 µM in the test with NCI/ADR-RES ovarian; 59.1 µM with COLO 205 colon; 86.7 µM with BT-549 breast; 36.3 µM in the test with TK-10 renal. Moreover, the TGI in the test on RXF 393 renal was 41.8 µM; with SK-MEL-5 melanoma, 33.2 µM; in the test with NCI-H460 lung it was 97.5 µM; in the test with MDA-MB-231 breast, > 100 µM.
In the case of `CCOC(=O)c1nnc2c(C(=O)OCC)c3ccccc3n2c1N`, the TGI in the test with CAKI-1 renal is > 100 µM; in the test on SF-295 CNS it was > 100 µM; in the test on NCI/ADR-RES ovarian it was 43.6 µM; with COLO 205 colon it was 49.6 µM; in the test on BT-549 breast, > 100 µM; in the test on TK-10 renal, > 100 µM. The TGI in the test with RXF 393 renal is > 100 µM; with SK-MEL-5 melanoma, 51.8 µM; in the test on NCI-H460 lung, > 100 µM; in the test on MDA-MB-231 breast, 87.8 µM.
For the molecule `NNC(=O)c1n[nH]nc1C(=O)NN`, the TGI in the test with CAKI-1 renal is 32.6 µM; in the test with SF-295 CNS it was > 100 µM; with NCI/ADR-RES ovarian, > 100 µM; in the test with COLO 205 colon, > 100 µM; in the test on BT-549 breast, 29.3 µM; with TK-10 renal it was > 100 µM. Besides, the TGI in the test with RXF 393 renal, in the test on SK-MEL-5 melanoma, in the test with NCI-H460 lung and in the test with MDA-MB-231 breast was > 100 µM in each case.
As to `O=C(Oc1ccccn1)c1cc2cc(CCl)ccc2oc1=O`, the TGI is 77.3 µM in the test with CAKI-1 renal; > 100 µM with SF-295 CNS; 75.5 µM in the test with NCI/ADR-RES ovarian; > 100 µM in the test on COLO 205 colon; 49.7 µM in the test with BT-549 breast; > 100 µM in the test with TK-10 renal. The TGI was 41.3 µM in the test on RXF 393 renal, > 100 µM in the test with SK-MEL-5 melanoma, > 100 µM in the test on NCI-H460 lung and 46.6 µM in the test on MDA-MB-231 breast.
Consider `C[C@H](CCC(=O)O)[C@H]1CC[C@H]2[C@@H]3CC[C@@H]4C[C@H](O)CC[C@]4(C)[C@H]3C[C@H](O)[C@]12C`, for which the TGI in the test with CAKI-1 renal was > 100 µM; with SF-295 CNS it was 38.9 µM; in the test with NCI/ADR-RES ovarian, > 100 µM; in the test on COLO 205 colon it was 61.8 µM; with BT-549 breast, > 100 µM; with TK-10 renal, > 100 µM. Also, the TGI in the test on RXF 393 renal, in the test on SK-MEL-5 melanoma, in the test on NCI-H460 lung and in the test on MDA-MB-231 breast was > 100 µM each time.
As to `CN(C)C1(N(C)C)Oc2c(c(=O)n(C)c(=O)n2C)C(c2ccccc2)C1(F)F` (stereo not given), the TGI in the test with CAKI-1 renal, in the test with SF-295 CNS, in the test with NCI/ADR-RES ovarian, in the test with COLO 205 colon, in the test with BT-549 breast and in the test on TK-10 renal was > 100 µM each time. The TGI in the test with RXF 393 renal, with SK-MEL-5 melanoma, in the test on NCI-H460 lung and with MDA-MB-231 breast was > 100 µM throughout.
Take `C/C=C(/C)C(=O)O[C@@H]1CCN2CC[C@H](COC(=O)/C(=C/C)CO)C12` (stereo not given in full): the TGI in the test on CAKI-1 renal was > 100 µM; in the test with SF-295 CNS, > 100 µM; in the test with NCI/ADR-RES ovarian, > 100 µM; in the test on COLO 205 colon, 42.7 µM; in the test with BT-549 breast, > 100 µM; with TK-10 renal, > 100 µM. The TGI in the test on RXF 393 renal was > 100 µM; in the test on SK-MEL-5 melanoma, > 62 µM; in the test on NCI-H460 lung it was > 100 µM; in the test with MDA-MB-231 breast, > 100 µM.
As to `c1ccc(CCNc2ccccn2)nc1`, the TGI in the test with CAKI-1 renal, with SF-295 CNS, with NCI/ADR-RES ovarian, with COLO 205 colon, in the test with BT-549 breast and with TK-10 renal was > 100 µM in each case. Further, the TGI in the test with RXF 393 renal, in the test with SK-MEL-5 melanoma, with NCI-H460 lung and in the test on MDA-MB-231 breast was > 100 µM each time.
As for `Cc1cc2oc(=N)c(C#N)c(C)c2cc1C`, the TGI in the test on CAKI-1 renal, in the test on SF-295 CNS, in the test on NCI/ADR-RES ovarian, in the test on COLO 205 colon, in the test with BT-549 breast and in the test on TK-10 renal was > 100 µM in each case. The TGI in the test on RXF 393 renal was 87.3 µM; in the test with SK-MEL-5 melanoma, > 100 µM; in the test with NCI-H460 lung, > 100 µM; with MDA-MB-231 breast, > 100 µM.
On to `Cc1nn(-c2ccccc2)c2c1C(c1ccc(Cl)cc1)NC(=S)N2` (stereo not given), for which the TGI is > 100 µM in the test with CAKI-1 renal; 62.3 µM with SF-295 CNS; 68.5 µM with NCI/ADR-RES ovarian; 31.2 µM in the test with COLO 205 colon; 59.7 µM with BT-549 breast; 43.6 µM in the test with TK-10 renal. For the same molecule, the TGI in the test on RXF 393 renal came out at 35.3 µM; in the test on SK-MEL-5 melanoma it was 52.1 µM; in the test with NCI-H460 lung, 60 µM; in the test with MDA-MB-231 breast, 51.2 µM.

The values are drawn from PubChem BioAssay (NCI).
